Results as given in ChEMBL document CHEMBL4765335, “Privileged scaffold-based design to identify a novel drug-like 5-HT receptor-preferring agonist to target Fragile X syndrome” (Eur J Med Chem, 2020).

Experiment: in vitro
Conditions: rat, liver microsomes

| SMILES | remaining at 0.5 h, 10 µM [%] |
| --- | --- |
| COc1ccc(-c2ccccc2C2CCN(CCCCOc3cnccn3)CC2)cc1 | 6 |
| COc1ccc(-c2ccccc2N2CCN(CCCCOc3ccccc3C#N)CC2)cc1 | 7 |
| COc1ccc(-c2ccccc2N2CCN(C[C@@H](O)COc3ccc(-c4cn5ccccc5n4)cc3)CC2)cc1 | 48 |
